Experimental data: patent US9120798B2, “Amino-heteroaryl 7-hydroxy-spiropiperidine indolinyl antagonists of P2Y1 receptor” (priority 2012, dated 2015)
Read-outs that look alike come from different tables or passages of the source.

Key:
[1] = test system: human platelet rich plasma (PRP); test: ADP induced platelet aggregation assay; format: cell-based; settings: 5 min, read-out: PA IC50 (μM) @ 10 μM ADP
Method: ADP Induced Platelet Aggregation Assay
The ability of P2Y1 antagonists covered in the present invention to inhibit platelet aggregation induced by 10 μM ADP was tested using human platelet rich plasma (PRP) as described in Platelet Protocols: Research and Clinical Laboratory Procedures (White, M. M. et al., Academic Press (1999)). Human blood was collected in 30 μM (final concentration in blood) argatroban (GSK) as the anticoagulant at a ratio of 1 ml per 9 ml of blood. The PRP was isolated by centrifugation at 170 g for 12 minutes. The platelet poor plasma (PPP) was used as the blank for optical aggregometry. Compounds of the present invention in DMSO solution was preincubated with 250 μl PRP at 37° C. for 1 minute with stirring speed of 1000 rpm. Aggregation was initiated by addition of 2.5 μl of 1 mM ADP (Chrono-log, Havertown, Pa.) for a final ADP concentration of 10 uM. Platelet aggregation was monitored using Optical Aggregometer (Chrono-log, Havertown, Pa.) and the area under the curve (AUC) at 5 minute was measured. IC50 was calculated using vehicle control as 0% inhibition.
The platelet aggregation assay measures the in vitro antiplatelet activity of a compound in platelet rich plasma. The assay is sensitive to plasma protein binding, and is believed to be a better predictor of actual in vivo activity.

[2] = molecular target: cloned human P2Y1 receptors (Homo sapiens (Human), UniProt P47900); test: Binding Assay B: Scintillation Proximity Assay (SPA) for P2Y1 binding
Chain of cloned human P2Y1 receptors (P47900 whole entry): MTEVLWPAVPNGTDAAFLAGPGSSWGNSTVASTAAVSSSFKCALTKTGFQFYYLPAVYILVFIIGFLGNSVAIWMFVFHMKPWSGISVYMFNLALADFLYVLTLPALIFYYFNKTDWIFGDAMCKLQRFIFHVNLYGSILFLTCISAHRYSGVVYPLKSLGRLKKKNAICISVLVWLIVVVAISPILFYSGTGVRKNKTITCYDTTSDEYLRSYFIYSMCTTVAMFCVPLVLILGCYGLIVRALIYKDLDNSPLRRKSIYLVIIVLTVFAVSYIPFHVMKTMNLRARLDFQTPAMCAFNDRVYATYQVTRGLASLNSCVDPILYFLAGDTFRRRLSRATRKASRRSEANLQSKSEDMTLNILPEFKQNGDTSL
Method: Binding Assay B—Scintillation Proximity Assay (SPA) for P2Y1 Binding
A SPA membrane binding assay was used to identify inhibitors of [^33P] […] Binding reactions were performed in 384-well OptiPlates (PerkinElmer Life Sciences, Cat #6007299) in a volume of 50 μL containing ˜15 fmol of P2Y1 receptor (1.7 μg of total protein), 0.3 nM [^33P] […] Reactions were allowed to proceed to completion at room temperature for 1 hour followed by centrifugation of the plate for 5 min. About 40 μL of the aqueous solution was aspirated. Plates were sealed and the [^33P]

[3] = SPA, 0.3 nM [33P] 2MeS-ADP, Cheng-Prusoff, read-out: P2Y1 Ki (nM) using binding assay B

| Compound | IC50 [1] [µM] | Ki [2] [nM] | Ki [2, 3] [nM] |
| --- | --- | --- | --- |
| CC(C)(C)CN1CCC2(CC1)CN(c1ccccc1Nc1nnc(-c3ccccc3)s1)c1c(O)ccc(C(F)(F)F)c12 [Example 1, 1′-Neopentyl-1-(2-(5-phenyl-1,3,4-thiadiazol-2-ylamino)phenyl)-4-(trifluoromethyl)spiro[indoline-3,4′-piperidin]-7-ol] | 1 | 10 |  |
| CC(C)(C)CN1CCC2(CC1)CN(c1ccccc1Nc1nnc(-c3ccc(C(C)(C)C)cc3)s1)c1c(O)ccc(C(F)(F)F)c12 [Example 2, 1-(2-(5-(4-tert-Butylphenyl)-1,3,4-thiadiazol-2-ylamino)phenyl)-1′-neopentyl-4-(trifluoromethyl)spiro[indoline-3,4′-piperidin]-7-ol] | 0.9 |  | 26 |
| CC(C)(C)CN1CCC2(CC1)CN(c1ccccc1Nc1nnc(-c3ccc(C(F)(F)F)cc3)s1)c1c(O)ccc(C(F)(F)F)c12 [Example 3, 1′-Neopentyl-4-(trifluoromethyl)-1-(2-(5-(4-(trifluoromethyl)phenyl)-1,3,4-thiadiazol-2-ylamino)phenyl)spiro[indoline-3,4′-piperidin]-7-ol] | 0.5 |  | 16 |
| CC(C)(C)CN1CCC2(CC1)CN(c1ccccc1Nc1nnc(-c3ccc(F)cc3)s1)c1c(O)ccc(C(F)(F)F)c12 [Example 4, 1-(2-(5-(4-Fluorophenyl)-1,3,4-thiadiazol-2-ylamino)phenyl)-1′-neopentyl-4-(trifluoromethyl)spiro[indoline-3,4′-piperidin]-7-ol] | 2.2 | 15 |  |
| CC(C)(C)CN1CCC2(CC1)CN(c1ccccc1Nc1nnc(-c3cccc(F)c3)s1)c1c(O)ccc(C(F)(F)F)c12 [Example 5, 1-(2-(5-(3-Fluorophenyl)-1,3,4-thiadiazol-2-ylamino)phenyl)-1′-neopentyl-4-(trifluoromethyl)spiro[indoline-3,4′-piperidin]-7-ol] | 1.6 | 12 |  |
| CC(C)(C)CN1CCC2(CC1)CN(c1ccccc1Nc1nnc(-c3ccccn3)s1)c1c(O)ccc(C(F)(F)F)c12 [Example 6, 1′-Neopentyl-1-(2-(5-(pyridin-2-yl)-1,3,4-thiadiazol-2-ylamino)phenyl)-4-(trifluoromethyl)spiro[indoline-3,4′-piperidin]-7-ol] | 2.3 | 11 |  |
| CC(C)(C)CN1CCC2(CC1)CN(c1ccccc1Nc1nnc(-c3ccc(C(F)(F)F)cn3)s1)c1c(O)ccc(Cl)c12 [Example 8, 4-Chloro-1′-neopentyl-1-(2-(5-(5-(trifluoromethyl)pyridin-2-yl)-1,3,4-thiadiazol-2-ylamino)phenyl)spiro[indoline-3,4′-piperidin]-7-ol] | 1.5 | 7 |  |
| CC(C)(C)CN1CCC2(CC1)CN(c1ccccc1Nc1nnc(-c3ccncc3)s1)c1c(O)ccc(Cl)c12 [Example 10, 4-Chloro-1′-neopentyl-1-(2-((5-(pyridin-4-yl)-1,3,4-thiadiazol-2-yl)amino)phenyl)spiro[indoline-3,4′-piperidin]-7-ol] | 11.4 | 40.2 |  |
| CC(C)(C)CN1CCC2(CC1)CN(c1ccccc1Nc1ncc(-c3ccccc3)s1)c1c(O)ccc(Cl)c12 [Example 11, 4-Chloro-1′-neopentyl-1-(2-(5-phenylthiazol-2-ylamino)phenyl)spiro[indoline-3,4′-piperidin]-7-ol] | 3.7 | 16 |  |
| CC(C)(C)CN1CCC2(CC1)CN(c1ccccc1Nc1nnc(-c3cnc4ccccc4n3)s1)c1c(O)ccc(Cl)c12 [Example 16, 4-chloro-1′-neopentyl-1-(2-((5-(quinoxalin-2-yl)-1,3,4-thiadiazol-2-yl)amino)phenyl)spiro[indoline-3,4′-piperidin]-7-ol] | 17.7 | 66 |  |
| COC(=O)c1nnc(Nc2ccccc2N2CC3(CCN(CC(C)(C)C)CC3)c3c(Cl)ccc(O)c32)s1 [Example 17, methyl 5-((2-(4-chloro-7-hydroxy-1′-neopentylspiro[indoline-3,4′-piperidin]-1-yl)phenyl)-amino)-1,3,4-thiadiazole-2-carboxylate] | 7.2 | 48 |  |
| Cn1nc(C(C)(C)C)cc1-c1nnc(Nc2ccccc2N2CC3(CCN(CC(C)(C)C)CC3)c3c(Cl)ccc(O)c32)s1 [Example 18, 1-(2-((5-(3-(tert-butyl)-1-methyl-1H-pyrazol-5-yl)-1,3,4-thiadiazol-2-yl)amino)phenyl)-4-chloro-1′-neopentylspiro[indoline-3,4′-piperidin]-7-ol] | 1.8 | 33 |  |
| CC(C)(C)CN1CCC2(CC1)CN(c1ccccc1Nc1nnc(-c3ccccc3Cl)s1)c1c(O)ccc(Cl)c12 [Example 19, 4-chloro-1-(2-((5-(2-chloro-phenyl)-1,3,4-thiadiazol-2-yl)amino)phenyl)-1′-neopentylspiro[indoline-3,4′-piperidin]-7-ol] | 10.7 |  | 28 |
| CC(C)(C)CN1CCC2(CC1)CN(c1ccccc1Nc1nnc(-c3cccc(Cl)c3)s1)c1c(O)ccc(Cl)c12 [Example 20, 4-chloro-1-(2-((5-(3-chloro-phenyl)-1,3,4-thiadiazol-2-yl)amino)phenyl)-1′-neopentylspiro[indoline-3,4′-piperidin]-7-ol] | 2.6 |  | 16 |
| CC(C)(C)CN1CCC2(CC1)CN(c1ccccc1Nc1nnc(-c3ccc(Cl)cc3)s1)c1c(O)ccc(Cl)c12 [Example 21, 4-chloro-1-(2-((5-(4-chloro-phenyl)-1,3,4-thiadiazol-2-yl)amino)phenyl)-1′-neopentylspiro[indoline-3,4′-piperidin]-7-ol] | 1.3 |  | 13 |
| Cc1cccc(-c2nnc(Nc3ccccc3N3CC4(CCN(CC(C)(C)C)CC4)c4c(Cl)ccc(O)c43)s2)c1 [Example 22, 4-chloro-1′-neopentyl-1-(2-((5-(m-tolyl)-1,3,4-thiadiazol-2-yl)amino)phenyl)spiro[indoline-3,4′-piperidin]-7-ol] | 4 | 22 |  |
| CC(C)(C)CN1CCC2(CC1)CN(c1ccccc1Nc1nnc(-c3cc(Cl)cc(Cl)c3)s1)c1c(O)ccc(Cl)c12 [Example 23, 4-chloro-1-(2-((5-(3,5-dichloro-phenyl)-1,3,4-thiadiazol-2-yl)amino)phenyl)-1′-neopentylspiro[indoline-3,4′-piperidin]-7-ol] | 3.4 | 19 |  |
| CC(C)(C)CN1CCC2(CC1)CN(c1ccccc1Nc1nnc(-c3cc(F)ccc3Cl)s1)c1c(O)ccc(Cl)c12 [Example 24, 4-chloro-1-(2-((5-(2-chloro-5-fluorophenyl)-1,3,4-thiadiazol-2-yl)amino)phenyl)-1′-neopentylspiro[indoline-3,4′-piperidin]-7-ol] | 4.5 | 28 |  |
| CC(C)(C)CN1CCC2(CC1)CN(c1ccccc1Nc1nnc(-c3ccc(Cl)c(Cl)c3)s1)c1c(O)ccc(Cl)c12 [Example 25, 4-chloro-1-(2-((5-(3,4-dichloro-phenyl)-1,3,4-thiadiazol-2-yl)amino)phenyl)-1′-neopentylspiro[indoline-3,4′-piperidin]-7-ol] | 3.7 | 19 |  |
| CC(C)(C)CN1CCC2(CC1)CN(c1ccccc1Nc1nnc(-c3ccc(OC(F)(F)F)cc3)s1)c1c(O)ccc(Cl)c12 [Example 26, 4-chloro-1′-neopentyl-1-(2-((5-(4-(trifluoromethoxy)phenyl)-1,3,4-thiadiazol-2-yl)amino)phenyl)spiro[indoline-3,4′-piperidin]-7-ol] | 0.9 |  | 13 |
| CC(C)(C)CN1CCC2(CC1)CN(c1ccccc1Nc1nnc(-c3cccc(C(F)(F)F)c3)s1)c1c(O)ccc(Cl)c12 [Example 27, 4-chloro-1′-neopentyl-1-(2-((5-(3-(trifluoromethyl)phenyl)-1,3,4-thiadiazol-2-yl)amino)-phenyl)spiro[indoline-3,4′-piperidin]-7-ol] | 3.2 | 24 |  |
| CC(C)(C)CN1CCC2(CC1)CN(c1ccccc1Nc1nnc(-c3ccccn3)s1)c1c(O)ccc(Cl)c12 [Example 28, 4-chloro-1′-neopentyl-1-(2-((5-(pyridin-2-yl)-1,3,4-thiadiazol-2-yl)amino)phenyl)-spiro[indoline-3,4′-piperidin]-7-ol] | 5.8 | 6.8 |  |
| CC(C)(C)CN1CCC2(CC1)CN(c1ccccc1Nc1nnc(-c3cccc(F)c3)s1)c1c(O)ccc(Cl)c12 [Example 29, 4-chloro-1-(2-((5-(3-fluoro-phenyl)-1,3,4-thiadiazol-2-yl)amino)phenyl)-1′-neopentylspiro[indoline-3,4′-piperidin]-7-ol] | 2.4 | 23 |  |
| CC(C)(C)CN1CCC2(CC1)CN(c1ccccc1Nc1nnc(-c3ccc(OC(F)(F)F)cc3)s1)c1c(O)ccc(F)c12 [Example 30, 4-fluoro-1′-neopentyl-1-(2-((5-(4-(trifluoromethoxy)-phenyl)-1,3,4-thiadiazol-2-yl)amino)phenyl)spiro[indoline-3,4′-piperidin]-7-ol] | 2 | 5 |  |
